The record followed here is patent publication US11945826B2, “Hydroxypyridoxazepines as NRF2 activators” (GLAXOSMITHKLINE INTELLECTUAL PROPERTY DEVELOPMENT LIMITED, priority 2019, dated 2024).

The test system of the assay is murine TAC model. Kind of assay: Mouse Transverse Aortic Constriction (TAC) Left Ventricular Pressure Overload Model. As to conditions: 10-week mouse TAC, Example 1 at 1, 3, 10 mg/kg/d, Example B at 100 mg/kg/d. It counts as in vivo, C57BLK/6J mice. An excerpt: Male C57BLK/6J mice (10-12 weeks old) were individually housed and acclimated to a standard powdered rodent diet for 1-3 days. Water was offered ad libitum throughout the study. Mice were initially anesthetized in a chamber using an 3% isoflurane with oxygen (1.0 L/min), and then maintained at 1.5% via nose cone (without intubation). A small incision (˜5 mm) was made just left of midline and just above the rib cage at the level of the suprasternal notch. The muscle tissue was retracted to expose the area above the pleural cavity. The lobes of the thymus were separated and retracted to expose the aortic arch. Fine surgical forceps with blunted tips were used to expose a region above and below the aorta. A micro blunt hook tied with 7-0 silk surgical suture was looped under the aorta and the suture pulled through. The suture was tied-off against a small piece of blunted 27 G needle and the needle was then removed creating the aortic constriction (a 60-70% constriction of the lumen). The incision was closed using 6-0 silk suture for the muscle layer, then the skin with Medbond. The sham procedure was identical without ligation of aorta. Depending on the individual study designs, drug administration began either on the day of surgery, or 1-2 weeks after surgery (detailed in figure legends) and continued until the end of study. Compounds were administered in the mouse chow unless otherwise noted in FIG. 12 legends. TAC study duration was either 6 weeks or 10 weeks in duration. All TAC study endpoints were collected at the end of study. Following heart dissections, samples were either snap frozen in liquid nitrogen and stored at −80° C. or placed in 10% neutral buffered formalin until analysis.
Echocardiography: For mouse TAC studies, echocardiography was performed on a Vevo 2100 high frequency imaging system. Animals were anesthetized with 2-3% isoflurane and sedation maintained with 1% isoflurane with animals on a heating pad. B-mode imaging of three cardiac cycles was used to assess ejection fraction (EF), end diastolic volume (EDV), end systolic volume (ESV), LV mass, and heart rate. ECG was used to measure heart rate during the echocardiography procedure.
NADPH dehydrogenase [quinone]-1 (NQO1) activity: Left ventricular (LV) tissue NQO1 activity was determined using an NQO1 assay kit per manufacturer's protocol (Abcam, Cambridge MA)
The KEAP1 blockers/Nrf2 activators, (R)-3-(1,4-dimethyl-1H-benzo[d][1,2,3]triazol-5-yl)-3-(3-(((R)-2-ethyl-7-hydroxy-2,3-dihydropyrido[2,3-f][1,4]oxazepin-4(5H)-yl)methyl)-4-methylphenyl)propanoic acid, hydrochloride, or a tautomer thereof (Example 1) (in dose-response) and (S)-3-(1,4-dimethyl-1H-benzo[d][1,2,3]triazol-5-yl)-3-(3-(((R)-2-ethyl-2,3-dihydropyrido[3,4-f][1,4]oxazepin-4(5H)-yl)methyl)-4-methylphenyl)-2,2-dimethylpropanoic acid (Example B) were evaluated in a 10-week mouse TAC model of severe hemodynamic stress.
FIG. 12 depicts the effect of the KEAP1-kelch domain blockers/Nrf2 activators (R)-3-(1,4-dimethyl-1H-benzo[d][1,2,3]triazol-5-yl)-3-(3-(((R)-2-ethyl-7-hydroxy-2,3-dihydropyrido[2,3-f][1,4]oxazepin-4(5H)-yl)methyl)-4-methylphenyl)propanoic acid, hydrochloride, or a tautomer thereof (Compound of Example 1) and (S)-3-(1,4-dimethyl-1H-benzo[d][1,2,3]triazol-5-yl)-3-(3-(((R)-2-ethyl-2,3-dihydropyrido[3,4-f][1,4]oxazepin-4(5H)-yl)methyl)-4-methylphenyl)-2,2-dimethylpropanoic acid (Compound B) on cardiac function, remodeling, and NQO1 enzyme activity in the murine 10-week TAC model. All compounds were dosed in chow beginning 2-weeks after TAC. […]

`CC[C@@H]1CN(Cc2cc([C@@H](CC(=O)O)c3ccc4c(nnn4C)c3C)ccc2C)Cc2nc(O)ccc2O1` [Example 1, (R)-3-(1,4-dimethyl-1H-benzo[d][1,2,3]triazol-5-yl)-3-(3-(((R)-2-ethyl-7-hydroxy-2,3-dihydropyrido[2,3-f][1,4]oxazepin-4(5H)-yl)methyl)-4-methylphenyl)propanoic acid]: the “cardiac function as assessed by ejection fraction” value (daily in chow for eight weeks from 2 weeks after TAC) is reported as “full normalization of cardiac function”. Where the note is “daily in chow for eight weeks”, the “NAD(P)H quinone oxidoreductase 1 (NQO1) in the LV” value was “significant dose-related elevations”; the “cardiac hypertrophy (left ventricular mass)” value is “did not influence cardiac hypertrophy”; the “unloading the heart (blood pressure) or heart rate” value is recorded as “nor did the ejection fraction change occur by unloading the heart (i.e., lowering blood pressure) or increasing the heart rate”.
